From the kinase profiling compilation of Christmann-Franck et al. (2016)

Columns and labels:
Test in all cases: KINOMEscan competition binding
Details in all cases: compound 10.0 µM
ACVR1B (human) = ACVR1B (human) (UniProt P36896)
ALK (human) = ALK (human) (UniProt Q9UM73)
BRAF (human) = BRAF (human) (UniProt P15056)
CDK14 (human) = CDK14 (human) (UniProt O94921)
CDK3 (human) = CDK3 (human) (UniProt Q00526)
DAPK2 (human) = DAPK2 (human) (UniProt Q9UIK4)
DYRK1A (human) = DYRK1A (human) (UniProt Q13627)
[1] = tested on: EGFR (human), P00533 [T790M]
EPHA5 (human) = EPHA5 (human) (UniProt P54756)
Sequence of EPHA5 (human) (P54756 whole entry, looked up): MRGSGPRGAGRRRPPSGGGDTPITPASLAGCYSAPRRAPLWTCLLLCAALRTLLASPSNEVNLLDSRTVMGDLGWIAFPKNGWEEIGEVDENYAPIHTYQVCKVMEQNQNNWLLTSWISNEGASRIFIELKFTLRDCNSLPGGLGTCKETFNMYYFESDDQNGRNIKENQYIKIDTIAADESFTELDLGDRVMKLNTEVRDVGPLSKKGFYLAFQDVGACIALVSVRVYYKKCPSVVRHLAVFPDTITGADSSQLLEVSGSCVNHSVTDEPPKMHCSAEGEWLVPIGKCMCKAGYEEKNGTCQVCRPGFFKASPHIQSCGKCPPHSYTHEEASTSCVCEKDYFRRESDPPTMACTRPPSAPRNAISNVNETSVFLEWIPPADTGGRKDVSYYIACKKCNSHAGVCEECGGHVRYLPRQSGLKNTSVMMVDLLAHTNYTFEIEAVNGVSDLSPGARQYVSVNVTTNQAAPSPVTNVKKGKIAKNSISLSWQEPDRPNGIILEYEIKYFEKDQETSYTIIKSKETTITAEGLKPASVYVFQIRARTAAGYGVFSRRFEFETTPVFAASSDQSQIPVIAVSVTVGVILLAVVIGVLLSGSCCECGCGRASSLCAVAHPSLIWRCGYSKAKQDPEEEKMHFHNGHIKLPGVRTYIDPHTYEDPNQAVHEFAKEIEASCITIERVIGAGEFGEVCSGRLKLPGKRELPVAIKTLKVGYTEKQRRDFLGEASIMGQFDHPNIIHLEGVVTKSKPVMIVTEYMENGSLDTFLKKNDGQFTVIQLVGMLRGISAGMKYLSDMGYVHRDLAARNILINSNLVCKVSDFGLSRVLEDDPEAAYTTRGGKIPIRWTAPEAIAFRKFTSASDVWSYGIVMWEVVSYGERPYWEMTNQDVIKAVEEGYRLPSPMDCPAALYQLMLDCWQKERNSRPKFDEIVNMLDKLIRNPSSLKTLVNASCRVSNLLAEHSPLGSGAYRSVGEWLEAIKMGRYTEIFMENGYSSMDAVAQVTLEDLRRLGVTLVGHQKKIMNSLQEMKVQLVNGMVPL

EPHB3 (human) = EPHB3 (human) (UniProt P54753)
FYN (human) = FYN (human) (UniProt P06241)
HIPK1 (human) = HIPK1 (human) (UniProt Q86Z02)
HIPK2 (human) = HIPK2 (human) (UniProt Q9H2X6)
HIPK3 (human) = HIPK3 (human) (UniProt Q9H422)
ITK (human) = ITK (human) (UniProt Q08881)
[2] = biological target: JAK1 JH1 catalytic (human) (UniProt P23458)
LIMK2 (human) = LIMK2 (human) (UniProt P53671)
Sequence of LIMK2 (human) (P53671 whole entry, looked up): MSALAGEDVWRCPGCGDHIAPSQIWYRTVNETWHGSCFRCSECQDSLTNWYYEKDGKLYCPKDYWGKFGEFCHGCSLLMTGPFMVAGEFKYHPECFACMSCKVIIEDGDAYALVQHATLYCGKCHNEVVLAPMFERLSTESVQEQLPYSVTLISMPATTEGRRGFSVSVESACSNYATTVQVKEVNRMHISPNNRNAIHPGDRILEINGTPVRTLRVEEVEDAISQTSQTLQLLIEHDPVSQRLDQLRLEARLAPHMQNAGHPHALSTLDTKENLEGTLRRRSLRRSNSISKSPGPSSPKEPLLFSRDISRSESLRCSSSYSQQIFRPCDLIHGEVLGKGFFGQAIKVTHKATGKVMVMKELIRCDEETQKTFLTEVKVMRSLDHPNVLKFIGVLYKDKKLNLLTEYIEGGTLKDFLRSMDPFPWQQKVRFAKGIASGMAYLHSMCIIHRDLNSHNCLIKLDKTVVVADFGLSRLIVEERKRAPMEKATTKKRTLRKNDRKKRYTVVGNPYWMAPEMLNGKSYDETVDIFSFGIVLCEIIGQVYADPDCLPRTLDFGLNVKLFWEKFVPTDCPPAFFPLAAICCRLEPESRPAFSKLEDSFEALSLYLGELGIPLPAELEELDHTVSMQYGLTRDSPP

MAP2K6 (human) = MAP2K6 (human) (UniProt P52564)
Sequence of MAP2K6 (human) (P52564 whole entry, looked up): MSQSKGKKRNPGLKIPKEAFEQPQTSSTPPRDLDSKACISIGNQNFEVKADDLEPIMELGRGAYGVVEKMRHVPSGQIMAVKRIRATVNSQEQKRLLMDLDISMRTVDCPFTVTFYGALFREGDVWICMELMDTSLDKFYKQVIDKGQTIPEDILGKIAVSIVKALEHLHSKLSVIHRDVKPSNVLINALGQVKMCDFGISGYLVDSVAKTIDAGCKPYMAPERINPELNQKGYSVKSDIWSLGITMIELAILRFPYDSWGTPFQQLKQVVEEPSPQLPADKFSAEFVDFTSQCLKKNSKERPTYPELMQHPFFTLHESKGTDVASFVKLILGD

MAP3K11 (human) = MAP3K11 (human) (UniProt Q16584)
MAP3K2 (human) = MAP3K2 (human) (UniProt Q9Y2U5)
MUSK (human) = MUSK (human) (UniProt O15146)
NEK1 (human) = NEK1 (human) (UniProt Q96PY6)
PAK2 (human) = PAK2 (human) (UniProt Q13177)
PIK3CA (human) = PIK3CA (human) (UniProt P42336)
PIM1 (human) = PIM1 (human) (UniProt P11309)
Sequence of PIM1 (human) (P11309 whole entry, looked up): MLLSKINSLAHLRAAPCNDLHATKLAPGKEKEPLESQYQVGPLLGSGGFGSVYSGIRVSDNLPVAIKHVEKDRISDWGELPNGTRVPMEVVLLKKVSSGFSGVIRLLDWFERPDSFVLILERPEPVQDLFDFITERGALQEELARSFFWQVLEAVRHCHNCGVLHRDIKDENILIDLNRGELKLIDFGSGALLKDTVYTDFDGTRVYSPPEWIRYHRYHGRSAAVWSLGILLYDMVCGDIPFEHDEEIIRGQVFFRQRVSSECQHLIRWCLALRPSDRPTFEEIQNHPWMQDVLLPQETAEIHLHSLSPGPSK

PRKCI (human) = PRKCI (human) (UniProt P41743)
RPS6KA1 KD2 (human) = RPS6KA1 KD2 (human) (UniProt Q15418)
RPS6KA2 KD1 (human) = RPS6KA2 KD1 (human) (UniProt Q15349)
RPS6KA6 KD1 (human) = RPS6KA6 KD1 (human) (UniProt Q9UK32)
SGK3 (human) = SGK3 (human) (UniProt Q96BR1)
SRPK2 (human) = SRPK2 (human) (UniProt P78362)
STK16 (human) = STK16 (human) (UniProt O75716)
Sequence of STK16 (human) (O75716 whole entry, looked up): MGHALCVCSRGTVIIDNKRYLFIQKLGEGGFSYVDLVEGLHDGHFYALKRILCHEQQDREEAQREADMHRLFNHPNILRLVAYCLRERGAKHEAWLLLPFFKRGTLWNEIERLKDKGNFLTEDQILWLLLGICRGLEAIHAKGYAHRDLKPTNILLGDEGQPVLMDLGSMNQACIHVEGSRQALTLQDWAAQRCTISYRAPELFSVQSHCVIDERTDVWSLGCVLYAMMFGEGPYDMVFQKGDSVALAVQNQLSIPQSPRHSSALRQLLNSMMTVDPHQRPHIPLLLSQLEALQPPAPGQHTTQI

STK32A (human) = STK32A (human) (UniProt Q8WU08)
Sequence of STK32A (human) (Q8WU08 whole entry, looked up): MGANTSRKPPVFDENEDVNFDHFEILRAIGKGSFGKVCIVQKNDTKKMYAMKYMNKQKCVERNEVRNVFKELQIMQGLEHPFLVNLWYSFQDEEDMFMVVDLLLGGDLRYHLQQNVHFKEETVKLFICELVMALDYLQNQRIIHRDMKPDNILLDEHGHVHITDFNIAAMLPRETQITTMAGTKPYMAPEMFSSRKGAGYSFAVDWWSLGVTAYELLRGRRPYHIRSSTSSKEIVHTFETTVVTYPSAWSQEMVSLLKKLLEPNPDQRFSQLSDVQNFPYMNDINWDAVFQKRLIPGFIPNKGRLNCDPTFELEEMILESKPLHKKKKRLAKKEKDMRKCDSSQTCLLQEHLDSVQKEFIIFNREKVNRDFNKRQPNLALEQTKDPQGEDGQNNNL

STK35 (human) = STK35 (human) (UniProt Q8TDR2)
TNK2 (human) = TNK2 (human) (UniProt Q07912)
ABL1 (human) = ABL1 (human) (UniProt P00519)
[3] = tested on: ABL1 (human), P00519 [H396P]

Sequence of CDK3 (human) (Q00526 whole entry, looked up): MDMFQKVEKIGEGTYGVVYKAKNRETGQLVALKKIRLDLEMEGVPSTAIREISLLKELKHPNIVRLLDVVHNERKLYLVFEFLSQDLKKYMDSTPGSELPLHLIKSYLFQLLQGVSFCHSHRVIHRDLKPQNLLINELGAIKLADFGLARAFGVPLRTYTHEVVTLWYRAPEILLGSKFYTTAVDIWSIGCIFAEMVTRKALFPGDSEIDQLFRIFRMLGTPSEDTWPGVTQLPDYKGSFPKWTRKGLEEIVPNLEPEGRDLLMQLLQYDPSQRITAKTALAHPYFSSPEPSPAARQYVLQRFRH
Sequence of ALK (human) (Q9UM73 whole entry, looked up): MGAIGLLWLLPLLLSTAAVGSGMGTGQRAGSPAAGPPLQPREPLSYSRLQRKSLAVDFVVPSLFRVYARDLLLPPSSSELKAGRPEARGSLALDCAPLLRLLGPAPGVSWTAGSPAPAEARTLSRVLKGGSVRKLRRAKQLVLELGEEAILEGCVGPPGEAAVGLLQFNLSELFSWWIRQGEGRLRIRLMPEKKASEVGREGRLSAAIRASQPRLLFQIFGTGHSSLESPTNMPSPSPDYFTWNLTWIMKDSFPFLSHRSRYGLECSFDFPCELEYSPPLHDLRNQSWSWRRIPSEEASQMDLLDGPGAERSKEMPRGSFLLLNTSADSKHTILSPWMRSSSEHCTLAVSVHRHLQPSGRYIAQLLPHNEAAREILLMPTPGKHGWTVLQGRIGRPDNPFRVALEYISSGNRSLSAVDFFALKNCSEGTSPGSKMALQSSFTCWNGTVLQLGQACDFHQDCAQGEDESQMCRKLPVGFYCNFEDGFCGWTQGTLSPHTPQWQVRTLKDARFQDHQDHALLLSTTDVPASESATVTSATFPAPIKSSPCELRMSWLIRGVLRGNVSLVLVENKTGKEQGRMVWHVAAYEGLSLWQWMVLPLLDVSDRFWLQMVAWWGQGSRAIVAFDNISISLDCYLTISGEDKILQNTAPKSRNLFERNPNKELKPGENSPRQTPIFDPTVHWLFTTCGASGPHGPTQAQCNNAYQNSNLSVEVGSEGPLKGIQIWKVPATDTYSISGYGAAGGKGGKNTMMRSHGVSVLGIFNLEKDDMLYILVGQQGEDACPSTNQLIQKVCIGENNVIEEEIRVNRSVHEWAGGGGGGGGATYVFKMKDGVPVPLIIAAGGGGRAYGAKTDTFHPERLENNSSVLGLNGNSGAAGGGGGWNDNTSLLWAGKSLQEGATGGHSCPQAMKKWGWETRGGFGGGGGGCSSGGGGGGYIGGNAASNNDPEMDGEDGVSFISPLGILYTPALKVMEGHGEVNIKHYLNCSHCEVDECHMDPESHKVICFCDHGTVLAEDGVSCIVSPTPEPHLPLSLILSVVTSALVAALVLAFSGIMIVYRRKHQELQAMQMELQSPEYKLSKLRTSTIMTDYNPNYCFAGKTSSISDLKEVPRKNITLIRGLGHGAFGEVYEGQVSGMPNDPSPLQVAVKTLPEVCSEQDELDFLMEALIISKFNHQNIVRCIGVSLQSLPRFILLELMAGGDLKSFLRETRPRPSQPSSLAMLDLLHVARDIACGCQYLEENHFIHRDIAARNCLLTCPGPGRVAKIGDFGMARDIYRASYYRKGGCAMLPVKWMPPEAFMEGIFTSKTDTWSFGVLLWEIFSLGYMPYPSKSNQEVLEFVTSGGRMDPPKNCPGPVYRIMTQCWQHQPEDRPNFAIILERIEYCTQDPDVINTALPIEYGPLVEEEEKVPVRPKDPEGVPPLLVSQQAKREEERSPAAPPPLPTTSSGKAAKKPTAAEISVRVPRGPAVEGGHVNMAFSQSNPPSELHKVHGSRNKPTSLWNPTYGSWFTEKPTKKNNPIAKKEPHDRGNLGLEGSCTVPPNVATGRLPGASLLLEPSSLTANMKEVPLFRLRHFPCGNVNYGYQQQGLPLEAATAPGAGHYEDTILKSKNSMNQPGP

COc1cc(C(=O)N2CCC(N3CCN(C)CC3)CC2)ccc1Nc1ncc2c(n1)N(C)c1ccccc1C(=O)N2C
kinase still bound, per cent of control (ACVR1B (human)): 100%
kinase still bound, per cent of control (ALK (human)): 13%
kinase still bound, per cent of control (BRAF (human)): 81%
kinase still bound, per cent of control (CDK14 (human)): 81%
kinase still bound, per cent of control (CDK3 (human)): 100%
kinase still bound, per cent of control (DAPK2 (human)): 67%
kinase still bound, per cent of control (DYRK1A (human)): 99%
kinase still bound, per cent of control [1]: 88%
kinase still bound, per cent of control (EPHA5 (human)): 95%
kinase still bound, per cent of control (EPHB3 (human)): 100%
kinase still bound, per cent of control (FYN (human)): 100%
kinase still bound, per cent of control (HIPK1 (human)): 100%
kinase still bound, per cent of control (HIPK2 (human)): 88%
kinase still bound, per cent of control (HIPK3 (human)): 89%
kinase still bound, per cent of control (ITK (human)): 82%
kinase still bound, per cent of control [2]: 100%
kinase still bound, per cent of control (LIMK2 (human)): 100%
kinase still bound, per cent of control (MAP2K6 (human)): 83%
kinase still bound, per cent of control (MAP3K11 (human)): 100%
kinase still bound, per cent of control (MAP3K2 (human)): 97%
kinase still bound, per cent of control (MUSK (human)): 99%
kinase still bound, per cent of control (NEK1 (human)): 83%
kinase still bound, per cent of control (PAK2 (human)): 65%
kinase still bound, per cent of control (PIK3CA (human)): 74%
kinase still bound, per cent of control (PIM1 (human)): 100%
kinase still bound, per cent of control (PRKCI (human)): 100%
kinase still bound, per cent of control (RPS6KA1 KD2 (human)): 10%
kinase still bound, per cent of control (RPS6KA2 KD1 (human)): 83%
kinase still bound, per cent of control (RPS6KA6 KD1 (human)): 92%
kinase still bound, per cent of control (SGK3 (human)): 95%
kinase still bound, per cent of control (SRPK2 (human)): 100%
kinase still bound, per cent of control (STK16 (human)): 62%
kinase still bound, per cent of control (STK32A (human)): 100%
kinase still bound, per cent of control (STK35 (human)): 100%
kinase still bound, per cent of control (TNK2 (human)): 18%

CNC(=O)c1ccc(Nc2cc(Nc3ccccc3S(=O)(=O)C(C)C)c3cc[nH]c3n2)nc1
kinase still bound, per cent of control (ABL1 (human)): 11%
kinase still bound, per cent of control [3]: 10%
kinase still bound, per cent of control (ACVR1B (human)): 100%
kinase still bound, per cent of control (ALK (human)): 1.8%
kinase still bound, per cent of control (CDK14 (human)): 100%
kinase still bound, per cent of control (CDK3 (human)): 100%
kinase still bound, per cent of control (DAPK2 (human)): 100%
kinase still bound, per cent of control (EPHA5 (human)): 100%
kinase still bound, per cent of control (EPHB3 (human)): 100%
kinase still bound, per cent of control (FYN (human)): 8.1%
kinase still bound, per cent of control (HIPK1 (human)): 100%
kinase still bound, per cent of control (ITK (human)): 0.15%
kinase still bound, per cent of control [2]: 2%
kinase still bound, per cent of control (LIMK2 (human)): 100%
kinase still bound, per cent of control (MAP2K6 (human)): 29%
kinase still bound, per cent of control (MAP3K11 (human)): 7.2%
kinase still bound, per cent of control (MUSK (human)): 0.95%
kinase still bound, per cent of control (NEK1 (human)): 100%
kinase still bound, per cent of control (PAK2 (human)): 100%
kinase still bound, per cent of control (PIK3CA (human)): 100%
kinase still bound, per cent of control (PIM1 (human)): 100%
kinase still bound, per cent of control (RPS6KA1 KD2 (human)): 100%
kinase still bound, per cent of control (RPS6KA2 KD1 (human)): 1.8%
kinase still bound, per cent of control (RPS6KA6 KD1 (human)): 29%
kinase still bound, per cent of control (SRPK2 (human)): 24%
kinase still bound, per cent of control (STK16 (human)): 2.8%
kinase still bound, per cent of control (STK35 (human)): 12%
kinase still bound, per cent of control (TNK2 (human)): 1%

CCN1CCN(C(=O)Cc2ccc(Nc3ncc(F)c(Nc4ccc(C(=O)Nc5ccccc5Cl)cc4)n3)cc2)CC1
kinase still bound, per cent of control (ACVR1B (human)): 45%
kinase still bound, per cent of control (ALK (human)): 22%
kinase still bound, per cent of control (BRAF (human)): 70%
kinase still bound, per cent of control (CDK14 (human)): 53%
kinase still bound, per cent of control (CDK3 (human)): 92%
kinase still bound, per cent of control (DAPK2 (human)): 15%
kinase still bound, per cent of control (DYRK1A (human)): 47%
kinase still bound, per cent of control [1]: 13%
kinase still bound, per cent of control (EPHA5 (human)): 92%
kinase still bound, per cent of control (EPHB3 (human)): 78%
kinase still bound, per cent of control (FYN (human)): 41%
kinase still bound, per cent of control (HIPK1 (human)): 3.2%
kinase still bound, per cent of control (HIPK2 (human)): 5%
kinase still bound, per cent of control (HIPK3 (human)): 12%
kinase still bound, per cent of control (ITK (human)): 52%
kinase still bound, per cent of control [2]: 6.9%
kinase still bound, per cent of control (LIMK2 (human)): 30%
kinase still bound, per cent of control (MAP2K6 (human)): 44%
kinase still bound, per cent of control (MAP3K11 (human)): 4.6%
kinase still bound, per cent of control (MAP3K2 (human)): 31%
kinase still bound, per cent of control (MUSK (human)): 11%
kinase still bound, per cent of control (NEK1 (human)): 17%
kinase still bound, per cent of control (PAK2 (human)): 56%
kinase still bound, per cent of control (PIK3CA (human)): 83%
kinase still bound, per cent of control (PIM1 (human)): 60%
kinase still bound, per cent of control (PRKCI (human)): 77%
kinase still bound, per cent of control (RPS6KA1 KD2 (human)): 45%
kinase still bound, per cent of control (RPS6KA2 KD1 (human)): 65%
kinase still bound, per cent of control (RPS6KA6 KD1 (human)): 37%
kinase still bound, per cent of control (SGK3 (human)): 100%
kinase still bound, per cent of control (SRPK2 (human)): 11%
kinase still bound, per cent of control (STK16 (human)): 1.6%
kinase still bound, per cent of control (STK32A (human)): 100%
kinase still bound, per cent of control (STK35 (human)): 91%
kinase still bound, per cent of control (TNK2 (human)): 10%

COc1ccc(N(C(=O)Oc2c(C)cccc2C)c2ccnc(Nc3ccc(N4CCN(C)CC4)cc3)n2)c(OC)c1
kinase still bound, per cent of control (ACVR1B (human)): 1%
kinase still bound, per cent of control (ALK (human)): 0.35%
kinase still bound, per cent of control (BRAF (human)): 88%
kinase still bound, per cent of control (CDK14 (human)): 93%
kinase still bound, per cent of control (CDK3 (human)): 100%
kinase still bound, per cent of control (DAPK2 (human)): 100%
kinase still bound, per cent of control (DYRK1A (human)): 75%
kinase still bound, per cent of control [1]: 2.2%
kinase still bound, per cent of control (EPHA5 (human)): 0.15%
kinase still bound, per cent of control (EPHB3 (human)): 0%
kinase still bound, per cent of control (FYN (human)): 0%
kinase still bound, per cent of control (HIPK1 (human)): 100%
kinase still bound, per cent of control (HIPK2 (human)): 100%
kinase still bound, per cent of control (HIPK3 (human)): 91%
kinase still bound, per cent of control (ITK (human)): 100%
kinase still bound, per cent of control [2]: 36%
kinase still bound, per cent of control (LIMK2 (human)): 0%
kinase still bound, per cent of control (MAP2K6 (human)): 66%
kinase still bound, per cent of control (MAP3K11 (human)): 8.8%
kinase still bound, per cent of control (MAP3K2 (human)): 2.2%
kinase still bound, per cent of control (MUSK (human)): 43%
kinase still bound, per cent of control (NEK1 (human)): 76%
kinase still bound, per cent of control (PAK2 (human)): 58%
kinase still bound, per cent of control (PIK3CA (human)): 100%
kinase still bound, per cent of control (PIM1 (human)): 100%
kinase still bound, per cent of control (PRKCI (human)): 62%
kinase still bound, per cent of control (RPS6KA1 KD2 (human)): 65%
kinase still bound, per cent of control (RPS6KA2 KD1 (human)): 27%
kinase still bound, per cent of control (RPS6KA6 KD1 (human)): 40%
kinase still bound, per cent of control (SGK3 (human)): 100%
kinase still bound, per cent of control (SRPK2 (human)): 42%
kinase still bound, per cent of control (STK16 (human)): 15%
kinase still bound, per cent of control (STK32A (human)): 8.2%
kinase still bound, per cent of control (STK35 (human)): 24%
kinase still bound, per cent of control (TNK2 (human)): 0%
